{
  "source": "patent US9796700B2",
  "about": "(Celgene CAR LLC, priority 2013, dated 2017)",
  "data": [
    {"molecular_target": "Erk1 (Homo sapiens (Human), UniProt P27361)", "sequence (P27361 whole entry, looked up)": "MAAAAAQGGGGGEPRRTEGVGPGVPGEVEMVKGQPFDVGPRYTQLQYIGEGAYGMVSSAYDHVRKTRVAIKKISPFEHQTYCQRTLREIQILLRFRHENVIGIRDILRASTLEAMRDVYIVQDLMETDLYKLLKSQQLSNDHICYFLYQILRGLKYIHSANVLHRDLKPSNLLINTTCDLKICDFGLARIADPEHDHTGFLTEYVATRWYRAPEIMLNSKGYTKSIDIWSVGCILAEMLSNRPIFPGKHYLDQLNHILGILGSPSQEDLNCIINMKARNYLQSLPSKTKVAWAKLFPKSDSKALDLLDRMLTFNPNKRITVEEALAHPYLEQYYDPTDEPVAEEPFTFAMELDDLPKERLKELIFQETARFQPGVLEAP", "assay": "Protein Mass Modification Assay (intact protein MALDI)", "assay_type": "binding", "protocol": "Protein Mass Modification Assay\nIntact protein: Erk1 from Millipore (Cat. No. 14-439) was incubated for 60 min. at room temperature with a 10-fold excess of test compound to protein. 4 μL aliquots of the resulting mixture were diluted with 15 μL of 0.2% TFA prior to micro C4 ZipTipping directly onto the MALDI target using sinapinic acid as the desorption matrix (10 mg/ml in 0.1% TFA:Acetonitrile 50:50, v/v). The centroid mass of the target protein in the control sample was compared with the centroid mass of the target protein incubated with compound. A shift in the centroid mass of the treated protein compared to the untreated protein was divided by the molecular weight of the compound. This number corresponds to the percentage of modified protein after one hour incubation. Results from this assay are reported in Table A under the column “ERK1 Mass Mod (%).”", "values": [
      {"molecule": "C/C=C/C(=O)Nc1cc(F)ccc1Nc1nc(N[C@@H]2CCC[C@H](C(N)=O)C2)ncc1Cl", "note": "(racemic) [Compound I-113, Rac-cis-(E)-3-((4-((2-(but-2-enamido)-4-fluorophenyl)amino)-5-chloropyrimidin-2-yl)amino)cyclohexanecarboxamide]", "ERK1 Mass Mod (%)": "F (key: E: provided a mass modification of ≧70%; F: provided a mass modification of 31-69%; G: proived a mass modification ≦30%)"},
      {"molecule": "C=CC(=O)Nc1cc(C)ccc1Nc1nc(Nc2cc(OC)nc(N3CCOCC3)c2)ncc1C(F)(F)F", "note": "[Compound I-94, N-(2-((2-((2-Methoxy-6-morpholinopyridin-4-yl)amino)-5-(trifluoromethyl)pyrimidin-4-yl)amino)-5-methylphenyl)acrylamide]", "ERK1 Mass Mod (%)": "F (provided a mass modification of 31-69%)"},
      {"molecule": "C=CC(=O)Nc1ccccc1Nc1nc(Nc2cc(C(=O)NCCO)c(F)cc2C)ncc1C(F)(F)F", "note": "[Compound I-81, 5-((4-((2-Acrylamidophenyl)amino)-5-(trifluoromethyl)pyrimidin-2-yl)amino)-2-fluoro-N-(2-hydroxyethyl)-4-methylbenzamide]", "ERK1 Mass Mod (%)": "E (provided a mass modification of ≧70%)"},
      {"molecule": "C=CC(=O)N[C@@H]1CCCC[C@H]1Oc1nc(Nc2cc(C(N)=O)ccc2C)ncc1C(N)=O", "note": "(racemic) [Compound I-268, Rac-trans-4-((2-acrylamidocyclohexyl)oxy)-2-((5-carbamoyl-2-methylphenyl)amino)pyrimidine-5-carboxamide]", "ERK1 Mass Mod (%)": "G (proived a mass modification ≦30%)"},
      {"molecule": "C=CC(=O)Nc1cc(OC)ccc1Nc1nc(Nc2ccc(N3CCC[C@H]3CO)cc2C#N)ncc1Cl", "note": "[Compound I-163, (S)—N-(2-((5-chloro-2-((2-cyano-4-(2-(hydroxymethyl)pyrrolidin-1-yl)phenyl)amino)pyrimidin-4-yl)amino)-5-methoxyphenyl)acrylamide]", "ERK1 Mass Mod (%)": "E (provided a mass modification of ≧70%)"},
      {"molecule": "C=CC(=O)Nc1ccccc1Nc1nc(N[C@H]2CCCN(C(=O)[C@H](O)CO)C2)ncc1C(F)(F)F", "note": "[Compound I-51, N-(2-((2-(((S)-1-((R)-2,3-Dihydroxypropanoyl)piperidin-3-yl)amino)-5-(trifluoromethyl)pyrimidin-4-yl)amino)phenyl)acrylamide]", "ERK1 Mass Mod (%)": "E (provided a mass modification of ≧70%)"},
      {"molecule": "C=CC(=O)Nc1ccccc1Nc1nc(Nc2ccnc(F)c2)ncc1C(F)(F)F", "note": "[Compound I-287, N-(2-((2-((2-Fluoropyridin-4-yl)amino)-5-(trifluoromethyl)pyrimidin-4-yl)amino)phenyl)acrylamide]", "ERK1 Mass Mod (%)": "E (provided a mass modification of ≧70%)"},
      {"molecule": "C=CC(=O)N[C@@H]1CCCC[C@H]1Nc1nc(Nc2cc(C(N)=O)ccc2C)ncc1Cl", "note": "(racemic) [Compound I-226, Rac-trans-3-((4-((2-acrylamidocyclohexyl)amino)-5-chloropyrimidin-2-yl)amino)-4-methylbenzamide]", "ERK1 Mass Mod (%)": "E (provided a mass modification of ≧70%)"},
      {"molecule": "C=CC(=O)Nc1ccccc1Nc1nc(Nc2ccc(N(CCN)C(C)=O)cc2OC)ncc1Cl", "note": "[Compound I-168, N-(2-((2-((4-(N-(2-aminoethyl)acetamido)-2-methoxyphenyl)amino)-5-chloropyrimidin-4-yl)amino)phenyl)acrylamide]", "ERK1 Mass Mod (%)": "E (provided a mass modification of ≧70%)"},
      {"molecule": "C=CC(=O)Nc1ccccc1Nc1nc(NC2CCN(C(=O)CCCC(=O)NCCCOCCOCCOCCCNC(=O)CCCC[C@@H]3SC[C@@H]4NC(=O)N[C@@H]43)CC2)ncc1Cl", "note": "[Compound I-300, 5-(4-((4-((2-acrylamidophenyl)amino)-5-chloropyrimidin-2-yl)amino)piperidin-1-yl)-5-oxo-N-(15-oxo-19-((3aS,4S,6aR)-2-oxohexahydro-1H-thieno[3,4-d]imidazol-4-yl)-4,7,10-trioxa-14-azanonadecyl)pentanamide]", "ERK1 Mass Mod (%)": "E (provided a mass modification of ≧70%)"},
      {"molecule": "C=CC(=O)Nc1ccccc1Nc1nc(Nc2cc(C(=O)NC)c(F)cc2C)ncc1Cl", "note": "[Compound I-231, 5-((4-((2-acrylamidophenyl)amino)-5-chloropyrimidin-2-yl)amino)-2-fluoro-N,4-dimethylbenzamide]", "ERK1 Mass Mod (%)": "E (provided a mass modification of ≧70%)"},
      {"molecule": "C=CC(=O)Nc1ccccc1Nc1nc(Nc2cc(C(N)=O)c(OCCCNC(=O)CCCC(=O)NCCCOCCOCCOCCCNC(=O)CCCC[C@@H]3SC[C@@H]4NC(=O)N[C@@H]43)cc2C)ncc1Cl", "note": "[Compound I-299, N^1-(3-(4-((4-((2-acrylamidophenyl)amino)-5-chloropyrimidin-2-yl)amino)-2-carbamoyl-5-methylphenoxy)propyl)-N^5-(15-oxo-19-((3aS,4S,6aR)-2-oxohexahydro-1H-thieno[3,4-d]imidazol-4-yl)-4,7,10-trioxa-14-azanonadecyl)glutaramide]", "ERK1 Mass Mod (%)": "E (provided a mass modification of ≧70%)"},
      {"molecule": "C=CC(=O)Nc1ccccc1Nc1nc(Nc2ccc(N(CCCN)C(C)=O)cc2OC)ncc1Cl", "note": "[Compound I-167, N-(2-((2-((4-(N-(3-aminopropyl)acetamido)-2-methoxyphenyl)amino)-5-chloropyrimidin-4-yl)amino)phenyl)acrylamide]", "ERK1 Mass Mod (%)": "E (provided a mass modification of ≧70%)"},
      {"molecule": "C=CC(=O)Nc1cc(C)ccc1Nc1nc(Nc2cc(C(=O)NCCO)c(F)cc2C)ncc1Cl", "note": "[Compound I-234, 5-((4-((2-acrylamido-4-methylphenyl)amino)-5-chloropyrimidin-2-yl)amino)-2-fluoro-N-(2-hydroxyethyl)-4-methylbenzamide]", "ERK1 Mass Mod (%)": "F (provided a mass modification of 31-69%)"},
      {"molecule": "C=CC(=O)Nc1ccccc1Nc1nc(Nc2cc(C(=O)NOCCO)ccc2C#N)ncc1Cl", "note": "[Compound I-202, 3-((4-((2-acrylamidophenyl)amino)-5-chloropyrimidin-2-yl)amino)-4-cyano-N-(2-hydroxyethoxy)benzamide]", "ERK1 Mass Mod (%)": "F (key: E: provided a mass modification of ≧70%; F: provided a mass modification of 31-69%; G: proived a mass modification ≦30%)"},
      {"molecule": "C=CC(=O)Nc1cc(C)ccc1Nc1nc(Nc2cc(OC)ccc2C)ncc1C(F)(F)F", "note": "[Compound I-341, N-(2-((2-((5-methoxy-2-methylphenyl)amino)-5-(trifluoromethyl)pyrimidin-4-yl)amino)-5-methylphenyl)acrylamide]", "ERK1 Mass Mod (%)": "E (provided a mass modification of ≧70%)"},
      {"molecule": "CC(=O)N1CCC[C@H](Nc2ncc(C(F)(F)F)c(N[C@H]3[C@@H](C(N)=O)[C@@H]4C=C[C@H]3C4)n2)C1", "note": "[Compound I-308, (1S,2S,3R,4R)-3-((2-(((S)-1-acetylpiperidin-3-yl)amino)-5-(trifluoromethyl)pyrimidin-4-yl)amino)bicyclo[2.2.1]hept-5-ene-2-carboxamide]", "ERK1 Mass Mod (%)": "G (proived a mass modification ≦30%)"},
      {"molecule": "C=CC(=O)Nc1ccccc1Nc1nc(N[C@@H]2CCC[C@H](C(=O)NOCCO)C2)ncc1Cl", "note": "(racemic) [Compound I-103, Rac-3-((4-((2-acrylamidophenyl)amino)-5-chloropyrimidin-2-yl)amino)-N-(2-hydroxyethoxy)-cis-cyclohexanecarboxamide]", "ERK1 Mass Mod (%)": "E (provided a mass modification of ≧70%)"},
      {"molecule": "C=CC(=O)Nc1ccccc1Nc1nc(Nc2ccc(N3CCOCC3)cc2OC)ncc1C(=O)NCC", "note": "[Compound I-251, 4-((2-acrylamidophenyl)amino)-N-ethyl-2-((2-methoxy-4-morpholinophenyl)amino)pyrimidine-5-carboxamide]", "ERK1 Mass Mod (%)": "G (proived a mass modification ≦30%)"},
      {"molecule": "C=CC(=O)Nc1ccccc1Nc1nc(Nc2cc(OC)cc(OC)c2)ncc1C(F)(F)F", "note": "[Compound I-338, N-(2-((2-((3,5-dimethoxyphenyl)amino)-5-(trifluoromethyl)pyrimidin-4-yl)amino)phenyl)acrylamide]", "ERK1 Mass Mod (%)": "E (provided a mass modification of ≧70%)"},
      {"molecule": "C=CC(=O)Nc1ccccc1Nc1nc(NC2CCN(S(C)(=O)=O)CC2)ncc1Cl", "note": "[Compound I-117, N-(2-((5-chloro-2-((1-(methylsulfonyl)piperidin-4-yl)amino)pyrimidin-4-yl)amino)phenyl)acrylamide]", "ERK1 Mass Mod (%)": "E (provided a mass modification of ≧70%)"},
      {"molecule": "C=CC(=O)Nc1cc(C)ccc1Nc1nc(Nc2ccnc(OC)c2)ncc1Cl", "note": "[Compound I-235, N-(2-((5-chloro-2-((2-methoxypyridin-4-yl)amino)pyrimidin-4-yl)amino)-5-methylphenyl)acrylamide]", "ERK1 Mass Mod (%)": "E (provided a mass modification of ≧70%)"},
      {"molecule": "C=CC(=O)Nc1ccccc1Nc1nc(N[C@H]2CCC[C@@H](CO)C2)ncc1Cl", "note": "(racemic) [Compound I-121, Rac-cis-N-(2-((5-chloro-2-((3-(hydroxymethyl)cyclohexyl)amino)pyrimidin-4-yl)amino)phenyl)acrylamide]", "ERK1 Mass Mod (%)": "E (key: E: provided a mass modification of ≧70%; F: provided a mass modification of 31-69%; G: proived a mass modification ≦30%)"},
      {"molecule": "C=CC(=O)Nc1ccccc1Nc1nc(Nc2cc(OC)nc(N3CCCCC3)c2)ncc1C(F)(F)F", "note": "[Compound I-282, N-(2-((2-((2-Methoxy-6-(piperidin-1-yl)pyridin-4-yl)amino)-5-(trifluoromethyl)pyrimidin-4-yl)amino)phenyl)acrylamide]", "ERK1 Mass Mod (%)": "E (provided a mass modification of ≧70%)"},
      {"molecule": "C=CC(=O)Nc1ccccc1Nc1nc(Nc2ccc(N3CCOCC3)cc2OC)ncc1C(C)=O", "note": "[Compound I-273, N-(2-(5-acetyl-2-(2-methoxy-4-morpholinophenylamino)pyrimidin-4-ylamino)phenyl) acrylamide]", "ERK1 Mass Mod (%)": "G (proived a mass modification ≦30%)"},
      {"molecule": "C=CC(=O)Nc1ccccc1Nc1nc(N[C@@H]2CCC[C@H](C(=O)O)C2)ncc1C(F)(F)F", "note": "(racemic) [Compound I-14, Rac-3-((4-((2-acrylamidophenyl)amino)-5-(trifluoromethyl)pyrimidin-2-yl)amino)-cis-cyclohexanecarboxylic acid]", "ERK1 Mass Mod (%)": "E (provided a mass modification of ≧70%)"}
    ]}
  ]
}
